Experimental data: ChEMBL document CHEMBL1201862, “PubChem BioAssay data set” (2004)
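Step 1: Grow cells in 96-well plates. Step 2: Expose to compound for 48 hours at 5 concentrations. Step 3: Interpolate endpoints linearly; if unreached, use highest concentration. GI50 = concentration required for 50% inhibition of growth.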 The source made the active and inactive calls. Cut-off read from the data, not from the text of the source: active = GI50 up to about 1.1 µM and inactive = higher.

Experiments:
Assay in all cases: NCI-60 cell line screen, 48 h
SW-620 = tested on: SW-620
RXF 393 = tested on: RXF 393
COLO 205 = tested on: COLO 205
HT-29 = tested on: HT-29
HCT-15 = tested on: HCT-15
IGROV-1 = tested on: IGROV-1
EKVX = tested on: EKVX
MDA-MB-231 = tested on: MDA-MB-231
KM12 = tested on: KM12
T47D = tested on: T47D
A498 = tested on: A498
HCT-116 = tested on: HCT-116
NCI-H226 = tested on: NCI-H226
MCF7 = tested on: MCF7
SF-539 = tested on: SF-539
SK-MEL-28 = tested on: SK-MEL-28
PC-3 = tested on: PC-3
M14 = tested on: M14
OVCAR-5 = tested on: OVCAR-5
BT-549 = tested on: BT-549

Row | SMILES | GI50 (SW-620) | GI50 (RXF 393) | GI50 (COLO 205) | GI50 (HT-29) | GI50 (HCT-15) [µM] | GI50 (IGROV-1) | GI50 (EKVX) | GI50 (MDA-MB-231) | GI50 (KM12) | GI50 (T47D) | GI50 (A498) | GI50 (HCT-116) | GI50 (NCI-H226) | GI50 (MCF7) | GI50 (SF-539) | GI50 (SK-MEL-28) | GI50 (PC-3) | GI50 (M14) | GI50 (OVCAR-5) | GI50 (BT-549)
1 | COC[C@@H](/N=C/C(C)(C)C)C(C)C | > 100 µM (inactive) | > 100 µM (inactive) | > 100 µM (inactive) | > 100 µM (inactive) | > 100 | > 100 µM (inactive) | > 100 µM (inactive) | > 100 µM (inactive) | > 100 µM (inactive) | > 100 µM (inactive) | > 100 µM (inactive) | > 100 µM (inactive) | > 100 µM (inactive) | > 100 µM (inactive) | > 100 µM (inactive) | > 100 µM (inactive) | > 100 µM (inactive) | > 100 µM (inactive) | > 100 µM (inactive) | 
2 | C[N+](C)(CCNc1ccc(NCC[N+](C)(C)Cc2ccc([N+](=O)[O-])cc2)c2c1C(=O)c1c(O)ccc(O)c1C2=O)Cc1ccc([N+](=O)[O-])cc1 | > 50 µM (inactive) | > 50 µM (inactive) | 18.7 µM (inactive) | 17.7 µM (inactive) | 35.8 | > 50 µM (inactive) | > 50 µM (inactive) | 2.65 µM (inactive) | 1.36 µM (inactive) | > 50 µM (inactive) | > 50 µM (inactive) | 9.53 µM (inactive) |  |  | 19.1 µM (inactive) | > 50 µM (inactive) | 37.8 µM (inactive) | > 50 µM (inactive) | > 50 µM (inactive) | 26.5 µM (inactive)
3 | CC(C)(C)[Si](C)(C)OCC1OC(n2ccc(N)nc2=O)C(O[Si](C)(C)C(C)(C)C)C1O[Si](C)(C)C(C)(C)C (stereo not drawn) | 1.58 µM (inactive) |  | 3.09 µM (inactive) | 1.56 µM (inactive) | 2.23 | 2.04 µM (inactive) | 3.22 µM (inactive) | 10.8 µM (inactive) |  | 2.7 µM (inactive) |  | 3.14 µM (inactive) | 1.36 µM (inactive) | 2.14 µM (inactive) |  |  | 1.74 µM (inactive) | 1.8 µM (inactive) | 1.63 µM (inactive) | 1.62 µM (inactive)
4 | CC(=O)OCC1C(C(C)OC(C)=O)CCC2C1CCC1(C)C(OC(C)=O)CCC21 (stereo not drawn) | 17.9 µM (inactive) |  |  | 16 µM (inactive) | 19.7 | 20 µM (inactive) | 15.6 µM (inactive) | 15.6 µM (inactive) | 15.7 µM (inactive) | 24.8 µM (inactive) | 19.7 µM (inactive) | 15.8 µM (inactive) | 16.6 µM (inactive) | 19.1 µM (inactive) | 17.7 µM (inactive) | 15.7 µM (inactive) |  | 17.1 µM (inactive) | 54.6 µM (inactive) | 11.6 µM (inactive)
5 | CCOC(=O)c1c[nH]c(C(=O)OCC)c1-c1cccn1-c1ccccc1 | 35.2 µM (inactive) | 16 µM (inactive) | 21.3 µM (inactive) | 26.4 µM (inactive) | 30.4 | 10.7 µM (inactive) | 24.8 µM (inactive) | 28.6 µM (inactive) | 10.1 µM (inactive) | 28.1 µM (inactive) | 27 µM (inactive) | 15.6 µM (inactive) | 15.1 µM (inactive) |  |  | 32.4 µM (inactive) | 18.7 µM (inactive) | 20.2 µM (inactive) | > 100 µM (inactive) | 25.3 µM (inactive)
6 | Oc1ccc2ccccc2c1/N=N\c1cccc2ccccc12 | > 100 µM (inactive) | > 100 µM (inactive) | > 100 µM (inactive) | > 100 µM (inactive) | > 100 | 29.9 µM (inactive) | 36 µM (inactive) | > 100 µM (inactive) | > 100 µM (inactive) | > 100 µM (inactive) |  | > 100 µM (inactive) | > 100 µM (inactive) |  |  | > 100 µM (inactive) | > 100 µM (inactive) | 95.9 µM (inactive) | > 100 µM (inactive) | 
7 | CO/N=C/c1c(-c2ccc(Cl)cc2)c(/C=N/OC)n2c1sc1ccccc12 | > 100 µM (inactive) | > 100 µM (inactive) | > 100 µM (inactive) | 81.8 µM (inactive) | > 100 | > 100 µM (inactive) | > 100 µM (inactive) | > 100 µM (inactive) | > 100 µM (inactive) | 21.2 µM (inactive) |  | > 100 µM (inactive) |  | > 100 µM (inactive) |  | > 100 µM (inactive) | > 100 µM (inactive) |  | > 100 µM (inactive) | > 100 µM (inactive)
8 | CCOC(=O)CC1(N)CC2c3ccccc3OC(=O)C2C(=O)N1 (stereo not drawn) | > 100 µM (inactive) | > 100 µM (inactive) | > 100 µM (inactive) | > 100 µM (inactive) | > 100 | > 100 µM (inactive) | > 100 µM (inactive) | > 100 µM (inactive) | > 100 µM (inactive) | > 100 µM (inactive) | > 100 µM (inactive) | > 100 µM (inactive) | > 100 µM (inactive) |  |  | > 100 µM (inactive) | > 100 µM (inactive) | > 100 µM (inactive) | > 100 µM (inactive) | > 100 µM (inactive)
9 | O=C(Nc1cccc(F)c1)c1cc2ccc(O)cc2o/c1=N\c1ccccc1F | 4.7 µM (inactive) |  | 21.1 µM (inactive) | 21.2 µM (inactive) | 2.88 | 2.96 µM (inactive) | 2.18 µM (inactive) |  | 3.75 µM (inactive) | 3.38 µM (inactive) | 16.1 µM (inactive) | 4.03 µM (inactive) |  | 3.33 µM (inactive) | 7.43 µM (inactive) | 4.05 µM (inactive) | 8.85 µM (inactive) | 5.32 µM (inactive) | 17.2 µM (inactive) | 2.13 µM (inactive)
10 | O=c1[nH]c(=O)n(Cc2ccccc2CO)cc1Sc1ccccc1 | 36.9 µM (inactive) | 24.7 µM (inactive) | 37.2 µM (inactive) | 30.5 µM (inactive) | 18.8 | 12.3 µM (inactive) | 21 µM (inactive) | 11.8 µM (inactive) | 23.7 µM (inactive) | 62.4 µM (inactive) |  | 25.3 µM (inactive) | 22.4 µM (inactive) | 22.3 µM (inactive) | 23.2 µM (inactive) | 34.8 µM (inactive) | 33 µM (inactive) | 19.7 µM (inactive) | > 100 µM (inactive) | 
11 | CC(C)(C)COC(=O)C(C)(C)NC(=O)C(CC(=O)OCc1ccccc1)NC(=O)OCc1ccccc1 (stereo not drawn) | 60.4 µM (inactive) | > 100 µM (inactive) | 21 µM (inactive) | 24.8 µM (inactive) | 25.6 | 61 µM (inactive) | 54.3 µM (inactive) | 42.9 µM (inactive) | 35.2 µM (inactive) | 20.2 µM (inactive) | 28.2 µM (inactive) | 32.7 µM (inactive) | 29.2 µM (inactive) | 32.4 µM (inactive) | 25.1 µM (inactive) | > 100 µM (inactive) | 25.7 µM (inactive) | 32.1 µM (inactive) | 26.8 µM (inactive) | 
12 | COc1cc2c(cc1OC)C(=O)N(c1ccc(O)cc1)C2 | > 100 µM (inactive) | > 100 µM (inactive) | > 100 µM (inactive) | > 100 µM (inactive) | > 100 | > 100 µM (inactive) | > 100 µM (inactive) | > 100 µM (inactive) |  | > 100 µM (inactive) | > 100 µM (inactive) | > 100 µM (inactive) | > 100 µM (inactive) |  | > 100 µM (inactive) | > 100 µM (inactive) | > 100 µM (inactive) | > 100 µM (inactive) | > 100 µM (inactive) | > 100 µM (inactive)
13 | COc1cc(/C=C2\C(=O)N(c3cccc(Cl)c3)C(c3ccccc3)S2(=O)=O)cc(OC)c1OC (stereo not drawn) | 59.7 µM (inactive) | 26.2 µM (inactive) | > 100 µM (inactive) | > 100 µM (inactive) | 54.3 |  | > 100 µM (inactive) | > 100 µM (inactive) | 58.1 µM (inactive) | 41.3 µM (inactive) | > 100 µM (inactive) | 24.1 µM (inactive) | 89.7 µM (inactive) | 33.9 µM (inactive) | 43.3 µM (inactive) | 69.2 µM (inactive) |  | 31.3 µM (inactive) | > 100 µM (inactive) | > 100 µM (inactive)
14 | O=c1[nH]c(=O)c2c([nH]1)[nH]c1ccccc12 | > 100 µM (inactive) | > 100 µM (inactive) | > 100 µM (inactive) | > 100 µM (inactive) | > 100 | > 100 µM (inactive) | > 100 µM (inactive) | > 100 µM (inactive) | 37.8 µM (inactive) | > 100 µM (inactive) | > 100 µM (inactive) | > 100 µM (inactive) | > 100 µM (inactive) | > 100 µM (inactive) | > 100 µM (inactive) |  |  | > 100 µM (inactive) | > 100 µM (inactive) | > 100 µM (inactive)
15 | CC(=O)O[C@H]1C[C@H](O[C@H]2[C@@H](O)C[C@H](O[C@H]3[C@@H](O)C[C@H](O[C@H]4CC[C@@]5(C)[C@H](CC[C@@H]6[C@@H]5C[C@@H](O)[C@]5(C)[C@@H](C7=CC(=O)OC7)CC[C@]65O)C4)O[C@@H]3C)O[C@@H]2C)O[C@H](C)[C@H]1O[C@@H]1O[C@H](CO)[C@@H](O)[C@H](O)[C@H]1O [LANATOSIDE C] | 0.0536 µM (active) |  | 0.136 µM (active) | 0.048 µM (active) | 0.0409 | 0.0435 µM (active) | 0.0284 µM (active) | 0.372 µM (active) | 0.104 µM (active) | 0.0778 µM (active) | 0.0897 µM (active) | 0.0324 µM (active) | 0.243 µM (active) | 0.051 µM (active) | 0.0336 µM (active) | 0.303 µM (active) |  | 0.147 µM (active) | 0.0869 µM (active) | 0.044 µM (active)
